# Experimental data from US10710978B2, “STK4 inhibitors for treatment of hematologic malignancies” (Dana-Farber Cancer Institute, Inc., priority 2015, dated 2020).
# Several values for one entry are separate records, joined by “and”; a condition that tells them apart may be missing. Identical values can stand only once. Like-named read-outs stand apart in the source and are kept apart here.
# Legend:
# Test in all cases: KiNativ assay
# Assay type in all cases: binding
# Settings in all cases: H929 live cell
# [1] = target: AurB (Homo sapiens (Human), UniProt Q96GD4)
# Method: (§1) Biochemical IC50s of the compounds of the present disclosure against various kinases were measured in a KiNativ assay. Compounds were screened in duplicate at 10 μM in H929 live cell. IC50 was measured via Mass spectroscopy (MS).
# [2] = target: CaMK2d (Homo sapiens (Human), UniProt Q13557)
# Method: as §1
# [3] = target: CaMK2g (Homo sapiens (Human), UniProt Q13555)
# Chain of CaMK2g (Q13555 whole entry): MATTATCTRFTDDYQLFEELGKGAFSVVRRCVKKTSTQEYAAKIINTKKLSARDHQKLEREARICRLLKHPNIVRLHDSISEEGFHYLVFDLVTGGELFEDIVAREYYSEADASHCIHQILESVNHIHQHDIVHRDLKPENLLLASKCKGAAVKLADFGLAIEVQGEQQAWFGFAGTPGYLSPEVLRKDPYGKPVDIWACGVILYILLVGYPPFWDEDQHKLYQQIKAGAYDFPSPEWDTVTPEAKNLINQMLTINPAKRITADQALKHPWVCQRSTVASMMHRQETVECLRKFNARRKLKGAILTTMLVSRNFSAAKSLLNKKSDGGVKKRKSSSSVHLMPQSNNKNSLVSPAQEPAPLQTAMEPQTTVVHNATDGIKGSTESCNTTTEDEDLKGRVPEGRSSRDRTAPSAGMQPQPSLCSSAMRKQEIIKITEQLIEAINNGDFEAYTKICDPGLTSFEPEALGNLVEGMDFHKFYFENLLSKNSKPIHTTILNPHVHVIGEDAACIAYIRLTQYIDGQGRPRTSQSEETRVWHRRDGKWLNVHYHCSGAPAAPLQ
# Method: as §1
# [4] = target: CaMKK2 (Homo sapiens (Human), UniProt Q96RR4)
# Method: as §1
# [5] = target: Erk2 (Homo sapiens (Human), UniProt P28482)
# Method: as §1
# [6] = target: FER (Homo sapiens (Human), UniProt P16591)
# Chain of FER (P16591 whole entry): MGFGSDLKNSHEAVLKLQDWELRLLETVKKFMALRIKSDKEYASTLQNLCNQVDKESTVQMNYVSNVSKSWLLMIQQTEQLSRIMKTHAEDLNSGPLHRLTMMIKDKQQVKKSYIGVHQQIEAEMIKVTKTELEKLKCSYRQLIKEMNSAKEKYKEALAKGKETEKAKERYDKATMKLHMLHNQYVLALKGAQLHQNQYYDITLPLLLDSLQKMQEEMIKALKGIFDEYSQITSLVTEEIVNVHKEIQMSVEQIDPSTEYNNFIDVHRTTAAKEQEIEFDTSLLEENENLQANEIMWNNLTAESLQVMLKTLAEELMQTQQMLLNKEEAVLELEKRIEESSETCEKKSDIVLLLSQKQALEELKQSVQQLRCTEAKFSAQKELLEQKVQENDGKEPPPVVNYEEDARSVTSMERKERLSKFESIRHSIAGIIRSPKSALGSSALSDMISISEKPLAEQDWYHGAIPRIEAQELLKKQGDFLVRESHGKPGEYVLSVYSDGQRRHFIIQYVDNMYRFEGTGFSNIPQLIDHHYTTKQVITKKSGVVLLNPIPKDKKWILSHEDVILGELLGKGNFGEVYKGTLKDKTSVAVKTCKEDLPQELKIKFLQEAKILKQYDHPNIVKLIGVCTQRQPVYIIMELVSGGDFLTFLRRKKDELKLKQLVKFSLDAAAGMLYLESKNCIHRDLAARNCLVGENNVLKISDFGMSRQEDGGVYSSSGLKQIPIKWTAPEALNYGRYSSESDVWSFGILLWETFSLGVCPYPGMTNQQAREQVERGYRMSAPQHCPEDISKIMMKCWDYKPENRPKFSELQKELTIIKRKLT
# Method: as §1
# [7] = target: GCN2 domain2 (Homo sapiens (Human), UniProt Q9P2K8)
# Method: as §1
# [8] = target: GSK3A (Homo sapiens (Human), UniProt P49840)
# Chain of GSK3A (P49840 whole entry): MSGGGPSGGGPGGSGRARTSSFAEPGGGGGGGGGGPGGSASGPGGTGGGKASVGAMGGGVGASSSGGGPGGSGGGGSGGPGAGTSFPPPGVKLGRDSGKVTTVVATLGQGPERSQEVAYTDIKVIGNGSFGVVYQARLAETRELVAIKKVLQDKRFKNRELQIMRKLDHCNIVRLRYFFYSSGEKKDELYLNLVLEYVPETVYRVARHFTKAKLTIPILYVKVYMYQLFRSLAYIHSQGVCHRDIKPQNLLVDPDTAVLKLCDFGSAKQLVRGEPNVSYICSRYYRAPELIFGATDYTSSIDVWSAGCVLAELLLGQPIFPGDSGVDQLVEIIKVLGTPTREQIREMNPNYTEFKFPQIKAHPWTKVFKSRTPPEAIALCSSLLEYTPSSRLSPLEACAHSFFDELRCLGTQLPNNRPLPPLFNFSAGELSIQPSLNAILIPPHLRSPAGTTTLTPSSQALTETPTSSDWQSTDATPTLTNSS
# Method: as §1
# [9] = target: GSK3B (Homo sapiens (Human), UniProt P49841)
# Chain of GSK3B (P49841 whole entry): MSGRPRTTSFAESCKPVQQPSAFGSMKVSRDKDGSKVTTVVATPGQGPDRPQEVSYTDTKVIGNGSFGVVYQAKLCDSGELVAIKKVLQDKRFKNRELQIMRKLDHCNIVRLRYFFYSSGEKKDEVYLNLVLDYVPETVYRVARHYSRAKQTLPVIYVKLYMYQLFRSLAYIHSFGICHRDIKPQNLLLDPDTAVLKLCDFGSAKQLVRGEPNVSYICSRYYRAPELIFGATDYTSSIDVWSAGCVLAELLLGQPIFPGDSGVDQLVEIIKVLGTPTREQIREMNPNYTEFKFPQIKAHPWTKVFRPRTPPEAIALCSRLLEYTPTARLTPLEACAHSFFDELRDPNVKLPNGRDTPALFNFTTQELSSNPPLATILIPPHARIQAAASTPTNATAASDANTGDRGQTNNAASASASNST
# Method: as §1
# [10] = target: IKKb (Homo sapiens (Human), UniProt O14920)
# Method: as §1
# [11] = target: ILK (Homo sapiens (Human), UniProt Q13418)
# Method: as §1
# [12] = target: IRE1 (Homo sapiens (Human), UniProt O75460)
# Method: as §1
# [13] = test system: JNK1, JNK2, JNK3
# Method: as §1
# [14] = target: LATS1 (Homo sapiens (Human), UniProt O95835)
# Method: as §1
# [15] = target: LKB1 (Homo sapiens (Human), UniProt Q15831)
# Chain of LKB1 (Q15831 whole entry): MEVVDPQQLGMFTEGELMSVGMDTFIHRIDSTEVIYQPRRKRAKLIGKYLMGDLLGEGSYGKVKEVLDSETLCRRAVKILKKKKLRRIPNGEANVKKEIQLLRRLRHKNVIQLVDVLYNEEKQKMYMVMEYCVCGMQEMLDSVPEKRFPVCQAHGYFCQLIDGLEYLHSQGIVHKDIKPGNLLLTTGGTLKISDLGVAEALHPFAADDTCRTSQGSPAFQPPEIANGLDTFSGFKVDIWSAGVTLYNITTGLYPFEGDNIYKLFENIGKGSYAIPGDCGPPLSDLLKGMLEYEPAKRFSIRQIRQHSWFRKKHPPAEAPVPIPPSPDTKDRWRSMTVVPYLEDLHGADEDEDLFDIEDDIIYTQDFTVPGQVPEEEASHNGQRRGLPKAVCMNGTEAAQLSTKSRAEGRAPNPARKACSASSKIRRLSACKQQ
# Method: as §1
# [16] = target: LYN (Homo sapiens (Human), UniProt P07948)
# Method: as §1
# [17] = test system: MAP2K1, MAP2K2
# Method: as §1
# [18] = target: MAP3K2 (Homo sapiens (Human), UniProt Q9Y2U5)
# Method: as §1
# [19] = test system: MAP3K2, MAP3K3
# Method: as §1
# [20] = target: MLKL (Homo sapiens (Human), UniProt Q8NB16)
# Chain of MLKL (Q8NB16 whole entry): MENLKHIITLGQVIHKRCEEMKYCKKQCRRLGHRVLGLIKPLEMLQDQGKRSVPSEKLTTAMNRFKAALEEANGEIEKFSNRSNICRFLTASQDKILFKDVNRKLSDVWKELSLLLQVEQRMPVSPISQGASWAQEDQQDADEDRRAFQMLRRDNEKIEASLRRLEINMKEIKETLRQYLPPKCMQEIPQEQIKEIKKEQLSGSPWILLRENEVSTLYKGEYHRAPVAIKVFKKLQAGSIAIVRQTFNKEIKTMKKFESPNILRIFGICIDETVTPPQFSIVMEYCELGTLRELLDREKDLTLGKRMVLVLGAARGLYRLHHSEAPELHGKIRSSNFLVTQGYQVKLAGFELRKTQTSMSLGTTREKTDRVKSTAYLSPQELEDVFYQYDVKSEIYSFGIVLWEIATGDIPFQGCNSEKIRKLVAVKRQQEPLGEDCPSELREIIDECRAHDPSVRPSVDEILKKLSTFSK
# Method: as §1
# [21] = test system: NEK6, NEK7
# Method: as §1
# [22] = target: NEK8 (Homo sapiens (Human), UniProt Q86SG6)
# Method: as §1
# [23] = target: NuaK2 (Homo sapiens (Human), UniProt Q9H093)
# Method: as §1
# [24] = target: PEK (Homo sapiens (Human), UniProt Q9NZJ5)
# Method: as §1
# [25] = target: PIP4K2A (Homo sapiens (Human), UniProt P48426)
# Method: as §1
# [26] = target: PKCz (Homo sapiens (Human), UniProt Q05513)
# Method: as §1
# [27] = target: PKD3 (Homo sapiens (Human), UniProt O94806)
# Method: as §1
# [28] = target: PRPK (Homo sapiens (Human), UniProt Q96S44)
# Chain of PRPK (Q96S44 whole entry): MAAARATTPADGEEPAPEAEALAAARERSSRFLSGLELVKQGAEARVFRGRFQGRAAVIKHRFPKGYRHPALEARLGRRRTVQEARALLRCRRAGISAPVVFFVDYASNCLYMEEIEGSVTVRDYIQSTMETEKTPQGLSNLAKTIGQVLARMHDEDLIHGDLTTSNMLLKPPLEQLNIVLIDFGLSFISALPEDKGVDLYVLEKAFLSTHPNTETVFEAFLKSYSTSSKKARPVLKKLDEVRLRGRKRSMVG
# Method: as §1
# [29] = target: RSK1 domain1 (Homo sapiens (Human), UniProt Q15418)
# Chain of RSK1 domain1 (Q15418 whole entry, the tested form may be a part): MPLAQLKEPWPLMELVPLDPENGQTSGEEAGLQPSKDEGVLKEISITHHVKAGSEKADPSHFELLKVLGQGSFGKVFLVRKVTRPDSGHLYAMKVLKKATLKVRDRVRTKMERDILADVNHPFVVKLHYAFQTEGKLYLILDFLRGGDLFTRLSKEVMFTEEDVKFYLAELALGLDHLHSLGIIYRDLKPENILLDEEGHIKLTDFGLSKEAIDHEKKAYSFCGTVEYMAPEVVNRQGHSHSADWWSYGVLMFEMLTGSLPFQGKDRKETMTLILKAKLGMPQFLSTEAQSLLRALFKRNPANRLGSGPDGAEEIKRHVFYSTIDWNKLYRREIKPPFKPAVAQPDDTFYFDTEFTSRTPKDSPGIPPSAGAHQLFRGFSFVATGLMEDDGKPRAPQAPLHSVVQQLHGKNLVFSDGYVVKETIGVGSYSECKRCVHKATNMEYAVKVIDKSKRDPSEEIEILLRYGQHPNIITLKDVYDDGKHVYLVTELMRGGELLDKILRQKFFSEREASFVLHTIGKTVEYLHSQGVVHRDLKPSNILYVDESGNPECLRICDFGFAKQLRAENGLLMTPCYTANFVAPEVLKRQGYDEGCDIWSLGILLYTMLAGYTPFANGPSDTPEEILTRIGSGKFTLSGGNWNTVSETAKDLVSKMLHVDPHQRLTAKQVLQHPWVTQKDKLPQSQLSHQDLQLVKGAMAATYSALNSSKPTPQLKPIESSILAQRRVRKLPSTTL
# Method: as §1
# [30] = target: SNRK (Homo sapiens (Human), UniProt Q9NRH2)
# Method: as §1
# [31] = target: STLK5 (Homo sapiens (Human), UniProt Q7RTN6)
# Method: as §1
# [32] = test system: TAO1, TAO3
# Method: as §1
# [33] = target: ZAK (Homo sapiens (Human), UniProt Q9NYL2)
# Chain of ZAK (Q9NYL2 whole entry): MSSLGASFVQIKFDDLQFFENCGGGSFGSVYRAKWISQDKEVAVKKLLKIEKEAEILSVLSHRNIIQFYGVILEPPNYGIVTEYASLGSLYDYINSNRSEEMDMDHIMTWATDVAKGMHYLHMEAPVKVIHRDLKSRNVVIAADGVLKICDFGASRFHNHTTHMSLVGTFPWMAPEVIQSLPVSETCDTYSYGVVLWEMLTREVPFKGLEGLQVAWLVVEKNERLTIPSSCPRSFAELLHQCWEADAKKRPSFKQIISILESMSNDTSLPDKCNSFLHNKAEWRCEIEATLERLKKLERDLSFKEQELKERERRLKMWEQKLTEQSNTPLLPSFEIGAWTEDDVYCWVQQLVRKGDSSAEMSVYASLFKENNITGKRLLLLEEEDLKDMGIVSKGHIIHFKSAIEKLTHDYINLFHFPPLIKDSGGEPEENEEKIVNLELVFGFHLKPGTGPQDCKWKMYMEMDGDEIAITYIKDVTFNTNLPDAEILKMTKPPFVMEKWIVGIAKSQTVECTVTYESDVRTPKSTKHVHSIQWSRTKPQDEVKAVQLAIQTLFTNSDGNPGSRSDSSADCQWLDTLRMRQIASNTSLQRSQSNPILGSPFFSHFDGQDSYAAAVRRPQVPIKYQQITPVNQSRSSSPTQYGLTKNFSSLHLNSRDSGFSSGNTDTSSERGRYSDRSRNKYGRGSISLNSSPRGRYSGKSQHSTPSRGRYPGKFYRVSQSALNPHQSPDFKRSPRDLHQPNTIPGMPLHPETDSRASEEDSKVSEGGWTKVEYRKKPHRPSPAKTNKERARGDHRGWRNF
# Method: as §1
# [34] = test system: ZC1/HGK, ZC2/TNIK, ZC3/MINK
# Method: as §1
compound,measurement,setting,value
"CN(C1CC1)S(=O)(=O)c1ccc(-c2cnc(N)c(-c3ccc4c(c3)CCNC4=O)c2)c(F)c1 [Compound I-28, 4-(6-amino-5-(1-oxo-1,2,3,4-tetrahydroisoquinolin-6-yl)pyridin-3-yl)-N-cyclopropyl-3-fluoro-N-methylbenzenesulfonamide]",inhibition at 10 µM,[1]; read-out: % inhibition (range),0%
same,inhibition at 10 µM,[1]; read-out: inhibition (10 μM),32.7%
same,inhibition at 10 µM,[2]; read-out: % inhibition (range),0%
same,inhibition at 10 µM,[2]; read-out: inhibition (10 μM),-31%
same,inhibition at 10 µM,[3]; read-out: % inhibition (range),0%
same,inhibition at 10 µM,[3]; read-out: inhibition (10 μM),-13%
same,inhibition at 10 µM,[4]; read-out: % inhibition (range),50 to 75%
same,inhibition at 10 µM,[4]; read-out: inhibition (10 μM),57%
same,inhibition at 10 µM,[5]; read-out: % inhibition (range),0%
same,inhibition at 10 µM,[5]; read-out: inhibition (10 μM),13.9%
same,inhibition at 10 µM,[6]; read-out: % inhibition (range),0%
same,inhibition at 10 µM,[6]; read-out: inhibition (10 μM),-3.9%
same,inhibition at 10 µM,[7]; read-out: % inhibition (range),0%
same,inhibition at 10 µM,[7]; read-out: inhibition (10 μM),-32.1%
same,inhibition at 10 µM,[8]; read-out: % inhibition (range),> 90%
same,inhibition at 10 µM,[8]; read-out: inhibition (10 μM),93.5%
same,inhibition at 10 µM,[9]; read-out: % inhibition (range),> 90%
same,inhibition at 10 µM,[9]; read-out: inhibition (10 μM),96.4%
same,inhibition at 10 µM,[10]; read-out: % inhibition (range),0%
same,inhibition at 10 µM,[10]; read-out: inhibition (10 μM),6.8%
same,inhibition at 10 µM,[11]; read-out: % inhibition (range),0%
same,inhibition at 10 µM,[11]; read-out: inhibition (10 μM),-5.8%
same,inhibition at 10 µM,[12]; read-out: % inhibition (range),0%
same,inhibition at 10 µM,[12]; read-out: inhibition (10 μM),-34.1%
same,% inhibition (range),[13]; 10 μM,0.0%
same,inhibition (10 μM),[13],−12.9%
same,inhibition at 10 µM,[14]; read-out: % inhibition (range),0%
same,inhibition at 10 µM,[14]; read-out: inhibition (10 μM),4.8%
same,inhibition at 10 µM,[15]; read-out: % inhibition (range),0%
same,inhibition at 10 µM,[15]; read-out: inhibition (10 μM),-0.6%
same,inhibition at 10 µM,[16]; read-out: % inhibition (range),0%
same,inhibition at 10 µM,[16]; read-out: inhibition (10 μM),-10.3%
same,% inhibition (range),[17]; 10 μM,0.0%
same,inhibition (10 μM),[17],0.5% and −0.9%
same,inhibition at 10 µM,[18]; read-out: % inhibition (range),0%
same,inhibition at 10 µM,[18]; read-out: inhibition (10 μM),7%
same,% inhibition (range),[19]; 10 μM,0.0%
same,inhibition (10 μM),[19],33.8%
same,inhibition at 10 µM,[20]; read-out: % inhibition (range),0%
same,inhibition at 10 µM,[20]; read-out: inhibition (10 μM),23.9%
same,% inhibition (range),[21]; 10 μM,0.0%
same,inhibition (10 μM),[21],−10.5%
same,inhibition at 10 µM,[22]; read-out: % inhibition (range),0%
same,inhibition at 10 µM,[22]; read-out: inhibition (10 μM),-3.4%
same,inhibition at 10 µM,[23]; read-out: % inhibition (range),0%
same,inhibition at 10 µM,[23]; read-out: inhibition (10 μM),11.2%
same,inhibition at 10 µM,[24]; read-out: % inhibition (range),0%
same,inhibition at 10 µM,[24]; read-out: inhibition (10 μM),-15.7%
same,inhibition at 10 µM,[25]; read-out: % inhibition (range),0%
same,inhibition at 10 µM,[25]; read-out: inhibition (10 μM),3.2%
same,inhibition at 10 µM,[26]; read-out: % inhibition (range),0%
same,inhibition at 10 µM,[26]; read-out: inhibition (10 μM),6.2%
same,inhibition at 10 µM,[27]; read-out: % inhibition (range),35 to 50%
same,inhibition at 10 µM,[27]; read-out: inhibition (10 μM),36.6%
same,inhibition at 10 µM,[28]; read-out: % inhibition (range),0%
same,inhibition at 10 µM,[28]; read-out: inhibition (10 μM),10.1%
same,inhibition at 10 µM,[29]; read-out: % inhibition (range),0%
same,inhibition at 10 µM,[29]; read-out: inhibition (10 μM),15.6%
same,inhibition at 10 µM,[30]; read-out: % inhibition (range),0%
same,inhibition at 10 µM,[30]; read-out: inhibition (10 μM),0%
same,inhibition at 10 µM,[31]; read-out: % inhibition (range),0%
same,inhibition at 10 µM,[31]; read-out: inhibition (10 μM),6.3%
same,% inhibition (range),[32]; 10 μM,75-90%
same,inhibition (10 μM),[32],85.5%
same,inhibition at 10 µM,[33]; read-out: % inhibition (range),0%
same,inhibition at 10 µM,[33]; read-out: inhibition (10 μM),18.2%
same,% inhibition (range),[34]; 10 μM,>90%
same,inhibition (10 μM),[34],94.5%
